Results on two compounds are retold here after PubChem BioAssay AID1053151 (Broad Institute, 2014).

The term inhibition denotes the share of the control response that was lost under treatment.

Test [1] in a line: reduction of secreted ApoB protein, dose response, orthogonal assay for Trib1 inducer project, cell-based, HepG2, ELISA, plate reader, cherry-pick (AID 1053151). Conditions: HepG2 secreted ApoB ELISA, 24 h, ApoB inhibition at active concentration, stronger effect = higher value. Background: An ELISA detects its analyte on a solid surface through an enzyme-linked reagent.
In test [2] the test system is HepG2 secreted ApoB ELISA, 24 h. Described as above.

Molecules are shown by their SMILES.

Regarding `CN1C(=O)c2cc(NC(=O)c3ccc(C(F)(F)F)cc3)ccc2OC[C@@H]2O[C@@H](CC(=O)NC3Cc4ccccc4C3)CC[C@@H]21`, the inhibition in test [1] (at 3.5 µM) was 90%. Further, the active concentration (lower = more potent) in test [2] is 3500 nM.
As for `CN1C(=O)c2cc(NC(=O)c3ccc(C(F)(F)F)cc3)ccc2OC[C@@H]2O[C@H](CC(=O)NC3Cc4ccccc4C3)CC[C@@H]21`, in test [1] (at 0.02 µM), the inhibition was determined as 99%. In addition, the active concentration (lower = more potent) in test [2] is 20 nM.
